Assay results taken from BigSolDB 2.1.

O=[N+]([O-])c1cccc2ccccc12
solubility (mole fraction)
Settings	273.15 K	278.15 K	283.15 K	288.15 K	293.15 K	298.15 K	303.15 K	308.15 K
in acetone	0.145	0.181	0.232	0.277	0.344	0.426	0.508	0.603
in acetonitrile	0.0535	0.0739	0.104	0.149	0.225	0.322	0.433	0.591
in cyclohexane	–	0.00743	0.0104	0.0134	0.0177	0.0261	0.0382	0.0532
in dichloromethane	0.241	0.283	0.328	0.384	0.434	0.5	0.554	0.637
in ethanol	0.00915	0.0111	0.0138	0.0173	0.0218	0.0281	0.0366	0.0467
in ethyl acetate	0.143	0.172	0.213	0.254	0.31	0.382	0.472	0.566
in isobutanol	0.00604	0.00768	0.00962	0.0123	0.0163	0.0219	0.0306	0.0424
in isopropanol	0.00588	0.00782	0.00957	0.0123	0.0163	0.022	0.0301	0.0423
in methanol	0.00637	0.00811	0.00991	0.0124	0.0155	0.0204	0.027	0.0353
in methyl acetate	0.135	0.172	0.21	0.26	0.32	0.406	0.487	0.59
in n-butanol	0.0111	0.0138	0.0169	0.0214	0.0274	0.0359	0.0493	0.0679
in n-propanol	0.0094	0.0118	0.0143	0.0176	0.0228	0.03	0.0409	0.058
